Experiments:
[1] = tested on: MHC class II expressing B cells; experiment: MHCII-mediated cell death of CpG-activated cells after peptide and anti-MHCII antibody; type: cell-based, C57/B6 mice; details: CpG activated cells treated with peptide followed by antibodies to MHCII; FIG. 3A
Protocol: In a first experiment, animals were injected with complete Freunds adjuvant (CFA) that contains mycobacterial DNA (a well-established TLR activator), or with CFA followed by the competitive antagonist peptide (CLIP inhibitor, SEQ ID NO. 2). Spleens were harvested, stained with CD19 for the detection of B cells, versus CLIP as an indicator of CD19+ cells expressing CLIP. The effect of CLIP inhibitors delivered in vivo on B cells (1A) versus CLIP+B cells (1B) is presented in the bar graphs.
To test the hypothesis that CLIP in the groove prevents MHCII-mediated cell death, we utilized animals that are deficient in CD74 expression (Ii Def mice), thus lacking both the precursor CD74 molecule as well as its proteolytic product, CLIP. […] any increase in cell death following CpG treatment, FIGS. 3A and 3B. […] The absence of CLIP (CLIP knock outs) leaves the cells susceptible to MHC Class II-mediated cell death (3B).

MHCII in B cells = experiment: competitive displacement of peptides in the peptide binding groove of MHCII in B cells; type: cell-based; details: preliminary studies
Protocol: To confirm the expression of MHCII staining with fluorochrome-conjugated anti-MHCII antibodies, followed by flow cytometric analysis may be performed. The cells are stained for a panel of cell surface molecules, including CD19, CD80 (B7.1), CD86 (B7.2), CD74, MHCII associated invariant peptide (CLIP), and the family of immune check points, including PD1, B7-H2, and B7-H4. As a starting concentration, the cultured cells are treated with a competitive antagonist peptide (CAP) at a concentration of 5 μg/ml, as established from preliminary studies as the optimum concentration for competitive displacement of peptides in the peptide binding groove of MHCII in B cells. […] To characterize these parameters, including levels of MHCII and other cell surface characteristics, the cells are treated with the competitive antagonist peptide at the previously determined optimum concentration, presumably 5 μg/ml, followed by treatment with anti-MHCII antibody as a surrogate for TCR engagement. Susceptibility to MHCII-mediated cell death is assessed by treating the cells with peptide, followed by treatment with anti-MHCII antibody for periods ranging between 3 and 24 hours to determine the optimum kinetics for inducing cell death. […] The capability of CAP peptide treatment to promote MHCII-mediated cell death may be assessed.

FRIMAVLAS [TPP]
MHC Class-II-mediated cell death [1]: MHC Class-II-mediated cell death can be restored
optimum concentration for competitive displacement of peptides in the peptide binding groove of MHCII (MHCII in B cells): 5 µg/mL

Reference: patent publication US20200268831A1, “METHODS FOR ENHANCING IMMUNOTHERAPY IN THE TREATMENT OF CANCER” (The Texas A&M University System, priority 2017, published 2020)
